Assay results as given in US7642272B2, “Cannabinoid receptor ligands” (Schering Corporation, priority 2003, dated 2010).

target: T1, recombinant human cannabinoid CB2 receptor (Homo sapiens, UniProt P34972); assay: competition with [3H] CP-55,940 for binding to recombinant cannabinoid receptor membranes (CB2); conditions: not given
T1 construct: purchased Receptor Biology RB-HCB2
Procedure: Potential cannabinoid receptor ligands were screened for the ability to compete with [^3H] CP-55,940 for binding to recombinant cannabinoid receptors. Test compounds were serially diluted in Diluent Buffer (50 mM Tris pH 7.1, 1 mM EDTA, 3 mM MgCl2, 0.1% BSA, 10% DMSO, 0.36% methyl cellulose (Sigma M-6385)) from stocks prepared in 100% DMSO. Aliquots (10 μL) were transferred into 96-well microtiter plates. Membrane preparations of recombinant human cannabinoid CB2 receptor (Receptor Biology #RB-HCB2) or recombinant human cannabinoid CB1 receptor (Receptor Biology #RB-HCB1) were diluted to 0.3 mg/mL in Binding Buffer (50 mM Tris pH 7.2, 1 mM EDTA, 3 mM MgCl2, 0.1% BSA). Aliquots (50 μL) were added to each well of the microtiter plate. The binding reactions were initiated by addition of [^3H] CP-55,940 (New England Nuclear # NET 1051; specific activity=180 Ci/mmol) to each well of the microtiter plate. Each 100 μl reaction mixture contained 0.48 nM [^3H] CP-55,940, 15 μg membrane protein in binding buffer containing 1% DMSO and 0.036% methyl cellulose. Following incubation for 2 hours at room temperature, the reactions were filtered through 0.5% polyethylenimine-coated GF/C filter plates (UniFilter-96, Packard) with a TomTec Mark 3U Harvester (Hamden, CT). The filter plate was washed 5 times with binding buffer, rotated 180°, then re-washed 5 times with binding buffer. Bound radioactivity was quantitated following addition of 30 μl of Packard Microscint 20 scintillant in a Packard TopCount NXT microplate scintillation counter. Non-linear regression analysis of the resulting data was performed using Prism 2.0b (GraphPad, San Diego, Calif.).
The activities (potencies) for the compounds of the invention are determined by measuring their Ki values.

T1 sequence (P34972 whole entry): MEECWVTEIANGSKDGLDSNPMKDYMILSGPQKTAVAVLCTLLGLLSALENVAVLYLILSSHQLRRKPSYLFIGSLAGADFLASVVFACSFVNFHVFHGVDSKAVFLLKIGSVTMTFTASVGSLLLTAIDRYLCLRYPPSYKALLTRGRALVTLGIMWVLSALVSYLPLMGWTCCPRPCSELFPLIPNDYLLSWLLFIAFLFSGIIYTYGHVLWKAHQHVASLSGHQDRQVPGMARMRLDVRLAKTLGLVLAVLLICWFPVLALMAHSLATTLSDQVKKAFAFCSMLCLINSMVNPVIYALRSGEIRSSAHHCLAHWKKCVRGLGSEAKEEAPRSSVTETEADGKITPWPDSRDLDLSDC

Compound	Ki
COc1ccc(S(=O)(=O)c2ccc(C(C)C)cc2)c(S(=O)(=O)c2ccccn2)c1 [AG]	< 20 nM
CC(C)c1ccc(S(=O)(=O)c2c(S(=O)(=O)c3ccccc3F)c3ccccc3n2C)cc1 [AO]	< 20 nM
CC(C)c1ccc(Cc2ccc(OC(F)(F)F)cc2S(=O)(=O)c2ccccc2F)cc1 [C]	< 20 nM
CC(C)c1ccc(S(=O)(=O)c2ccc(OC(F)(F)F)cc2S(=O)(=O)c2ccccc2F)cc1 [F]	< 20 nM

same assay, conditions: 0.48 nM [3H] CP-55,940, 15 μg membrane protein, 2 hours at room temperature; read-out: CB2 Ki

Compound	Ki
CC(C)c1ccc(S(=O)(=O)c2c(S(=O)(=O)c3ccccn3)c3ccccc3n2C)cc1 [AQ]	< 20 nM
CC(C)c1ccc(S(=O)(=O)c2ccc(OC(F)(F)F)cc2S(=O)(=O)c2ccccn2)cc1 [G]	< 20 nM
O=S(=O)(c1ccc(C2CC2)cc1)c1ccc(Cl)cc1S(=O)(=O)c1ccccc1F [K]	< 20 nM

Now from value to compound:

Ki	Compound
< 20 nM	COc1ccc(S(=O)(=O)c2ccc(C3CC3)cc2)c(S(=O)(=O)c2ccccc2F)c1 [AH]
< 20 nM	CC(C)c1ccc(S(=O)(=O)c2ccc(C(C)C)cc2S(=O)(=O)c2ccccn2)cc1 [AJ]
< 20 nM	CC(C)Oc1ccc(S(=O)(=O)c2ccc(C(C)C)cc2)c(S(=O)(=O)c2ccccc2F)c1 [AK]
< 20 nM	COCCOc1ccc(S(=O)(=O)c2ccc(C(C)C)cc2)c(S(=O)(=O)c2ccccc2F)c1 [S]
